Results reported in patent US20230085307A1, “PYRIDAZINONE COMPOUND AND HERBICIDE” (NISSAN CHEMICAL CORPORATION, priority 2019, published 2023).

Experiments:
late watergrass = test: Test Example 1: herbicidal activity, application before weed generation under submerged conditions (Table 16, symbol A); type: in vivo, late watergrass (Echinochloa oryzicola); conditions: 320 g/ha applied herbicide
Procedure, shortened: (§1)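 Emulsion formulation, water-diluted to set dose, was put onto the flooded surface (4 cm depth, alluvial soil) the same day weeds were sown and 2.5-leaf rice transplanted. After 3 weeks at 25-30 °C under glass, each species was rated 0 (≤5% kill) to 5 (≥90% kill).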

Japanese bulrush = test: Test Example 1: herbicidal activity, application before weed generation under submerged conditions (Table 16, symbol B); type: in vivo, Japanese bulrush (Schoenoplectus juncoides); conditions: 320 g/ha applied herbicide
Procedure, shortened: as §1

oval-leafed pondweed = test: Test Example 1: herbicidal activity, application before weed generation under submerged conditions (Table 16, symbol C); type: in vivo, oval-leafed pondweed (Monochoria vaginalis); conditions: 320 g/ha applied herbicide
Procedure, shortened: as §1

barnyard grass [1] = test: Test Example 3: herbicidal effect by foliage application, Wagner pot (Table 18, symbol H); type: in vivo, barnyard grass (Echinochloa crus-galli); conditions: 320 g/ha
Procedure, shortened: (§2)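 Plants were sown in alluvial soil held under 0.1–0.5 cm standing water and grown 14 days in a greenhouse at 25–30 °C. An emulsifiable formulation, water-diluted to the set dose, was then sprayed onto the foliage, and effects were scored three weeks later using previously defined criteria.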

Chinese sprangletop = test: Test Example 3: herbicidal effect by foliage application, Wagner pot (Table 18, symbol D); type: in vivo, chinese sprangletop (Leptochloa chinensis); conditions: 320 g/ha
Procedure, shortened: as §2

rice flat sedge = test: Test Example 3: herbicidal effect by foliage application, Wagner pot (Table 18, symbol E); type: in vivo, rice flat sedge (Cyperus iria); conditions: 320 g/ha
Procedure, shortened: as §2

southern crabgrass [2] = test: Test Example 4: herbicidal effect by soil treatment (Table 19, symbol F); type: in vivo, southern crabgrass (Digitaria ciliaris); conditions: 320 g/ha
Procedure, shortened: (§3)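 Scoring uses the grading scale of an earlier test, three weeks post-application. Treatment consists of spraying a diluted emulsion formulation across the surface of sterilized diluvial soil in which seeds are buried near 1.5 cm deep; boxes are kept in a greenhouse between 25° C. and 30° C.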

green foxtail [3] = test: Test Example 4: herbicidal effect by soil treatment (Table 19, symbol G); type: in vivo, green foxtail (Setaria viridis); conditions: 320 g/ha
Procedure, shortened: as §3

barnyard grass [4] = test: Test Example 4: herbicidal effect by soil treatment (Table 19, symbol H); type: in vivo, barnyard grass (Echinochloa crus-galli); conditions: 320 g/ha
Procedure, shortened: as §3

wild oat [5] = test: Test Example 4: herbicidal effect by soil treatment (Table 19, symbol I); type: in vivo, wild oat (Avena fatua); conditions: 320 g/ha
Procedure, shortened: as §3

blackgrass [6] = test: Test Example 4: herbicidal effect by soil treatment (Table 19, symbol J); type: in vivo, blackgrass (Alopecurus myosuroides); conditions: 320 g/ha
Procedure, shortened: as §3

Italian ryegrass [7] = test: Test Example 4: herbicidal effect by soil treatment (Table 19, symbol K); type: in vivo, Italian ryegrass (Lolium multiflorum); conditions: 320 g/ha
Procedure, shortened: as §3

windgrass [8] = test: Test Example 4: herbicidal effect by soil treatment (Table 19, symbol L); type: in vivo, windgrass (Apera spica-venti); conditions: 320 g/ha
Procedure, shortened: as §3

velvetleaf [9] = test: Test Example 4: herbicidal effect by soil treatment (Table 19, symbol M); type: in vivo, velvetleaf (Abutilon theophrasti); conditions: 320 g/ha
Procedure, shortened: as §3

redroot pigweed = test: Test Example 4: herbicidal effect by soil treatment (Table 19, symbol N); type: in vivo, redroot pigweed (Amaranthus retroflexus); conditions: 320 g/ha
Procedure, shortened: as §3

lambsquarters [10] = test: Test Example 4: herbicidal effect by soil treatment (Table 19, symbol O); type: in vivo, lambsquarters (Chenopodium album); conditions: 320 g/ha
Procedure, shortened: as §3

chickweed = test: Test Example 4: herbicidal effect by soil treatment (Table 19, symbol P); type: in vivo, common chickweed (Stellaria media); conditions: 320 g/ha
Procedure, shortened: as §3

persian speedwell [11] = test: Test Example 4: herbicidal effect by soil treatment (Table 19, symbol R); type: in vivo, Persian speedwell (Veronica persica); conditions: 320 g/ha
Procedure, shortened: as §3

southern crabgrass [12] = test: Test Example 5: herbicidal effect by foliage application, plastic box (Table 20, symbol F); type: in vivo, southern crabgrass (Digitaria ciliaris); conditions: foliage application, 320 g/ha, 3 weeks after application
Procedure, shortened: (§4)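 Post-emergence foliar test in sterilized diluvial soil. Compound applied as water-diluted emulsion at a predetermined rate to 14-day-old plants; evaluation at three weeks.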

green foxtail [13] = test: Test Example 5: herbicidal effect by foliage application, plastic box (Table 20, symbol G); type: in vivo, green foxtail (Setaria viridis); conditions: foliage application, 320 g/ha, 3 weeks after application
Procedure, shortened: as §4

barnyard grass [14] = test: Test Example 5: herbicidal effect by foliage application, plastic box (Table 20, symbol H); type: in vivo, barnyard grass (Echinochloa crus-galli); conditions: foliage application, 320 g/ha, 3 weeks after application
Procedure, shortened: as §4

wild oat [15] = test: Test Example 5: herbicidal effect by foliage application, plastic box (Table 20, symbol I); type: in vivo, wild oat (Avena fatua); conditions: foliage application, 320 g/ha, 3 weeks after application
Procedure, shortened: as §4

blackgrass [16] = test: Test Example 5: herbicidal effect by foliage application, plastic box (Table 20, symbol J); type: in vivo, blackgrass (Alopecurus myosuroides); conditions: foliage application, 320 g/ha, 3 weeks after application
Procedure, shortened: as §4

Italian ryegrass [17] = test: Test Example 5: herbicidal effect by foliage application, plastic box (Table 20, symbol K); type: in vivo, Italian ryegrass (Lolium multiflorum); conditions: foliage application, 320 g/ha, 3 weeks after application
Procedure, shortened: as §4

windgrass [18] = test: Test Example 5: herbicidal effect by foliage application, plastic box (Table 20, symbol L); type: in vivo, windgrass (Apera spica-venti); conditions: foliage application, 320 g/ha, 3 weeks after application
Procedure, shortened: as §4

velvetleaf [19] = test: Test Example 5: herbicidal effect by foliage application, plastic box (Table 20, symbol M); type: in vivo, velvetleaf (Abutilon theophrasti); conditions: foliage application, 320 g/ha, 3 weeks after application
Procedure, shortened: as §4

lambsquarters [20] = test: Test Example 5: herbicidal effect by foliage application, plastic box (Table 20, symbol O); type: in vivo, lambsquarters (Chenopodium album); conditions: foliage application, 320 g/ha, 3 weeks after application
Procedure, shortened: as §4

persian speedwell [21] = test: Test Example 5: herbicidal effect by foliage application, plastic box (Table 20, symbol R); type: in vivo, Persian speedwell (Veronica persica); conditions: foliage application, 320 g/ha, 3 weeks after application
Procedure, shortened: as §4

Row | Compound | Herbicidal effect on A: late watergrass (grade 0-5) (late watergrass) | Herbicidal effect on B: Japanese bulrush (grade 0-5) (Japanese bulrush) | Herbicidal effect on C: oval-leafed pondweed (grade 0-5) (oval-leafed pondweed) | herbicidal effect on H (barnyard grass), rating 0-5 (barnyard grass [1]) | herbicidal effect on D (Chinese sprangletop), rating 0-5 (Chinese sprangletop) | herbicidal effect on E (rice flat sedge), rating 0-5 (rice flat sedge) | herbicidal effect rating, F: southern crabgrass (southern crabgrass [2]) | herbicidal effect rating, G: green foxtail (green foxtail [3]) | herbicidal effect rating, H: barnyard grass (barnyard grass [4]) | herbicidal effect rating, I: wild oat (wild oat [5]) | herbicidal effect rating, J: blackgrass (blackgrass [6]) | herbicidal effect rating, K: Italian ryegrass (Italian ryegrass [7]) | herbicidal effect rating, L: windgrass (windgrass [8]) | herbicidal effect rating, M: velvetleaf (velvetleaf [9]) | herbicidal effect rating, N: redroot pigweed (redroot pigweed) | herbicidal effect rating, O: lambsquarters (lambsquarters [10]) | herbicidal effect rating, P: chickweed (chickweed) | herbicidal effect rating, R: persian speedwell (persian speedwell [11]) | effect on southern crabgrass (F) (southern crabgrass [12]) | effect on green foxtail (G) (green foxtail [13]) | also measured
1 | Cc1nn(C)c(=O)c(-c2c(-c3ccc(F)cc3)sc3ccc(F)cc23)c1OC(=O)c1ccccc1Cl [2-005] | 0 (Herbicidal rate of 5% or less (almost no effect)) | 2 (Herbicidal rate of 20% or more and less than 40%) | 2 (Herbicidal rate of 20% or more and less than 40%) | 5 (Herbicidal rate of 90% or more (almost completely withered)) | 3 (Herbicidal rate of 40% or more and less than 70%) | 5 (Herbicidal rate of 90% or more (almost completely withered)) | 5 (Herbicidal rate of 90% or more (almost completely withered)) | 5 (Herbicidal rate of 90% or more (almost completely withered)) | 4 (Herbicidal rate of 70% or more and less than 90%) | 0 (Herbicidal rate of 5% or less (almost no effect)) | 0 (Herbicidal rate of 5% or less (almost no effect)) | 4 (Herbicidal rate of 70% or more and less than 90%) | 0 (Herbicidal rate of 5% or less (almost no effect)) | 4 (Herbicidal rate of 70% or more and less than 90%) | 4 (Herbicidal rate of 70% or more and less than 90%) | 4 (Herbicidal rate of 70% or more and less than 90%) | 4 (Herbicidal rate of 70% or more and less than 90%) | 3 (Herbicidal rate of 40% or more and less than 70%) | 5 (Herbicidal rate of 90% or more (almost completely withered)) | 5 (Herbicidal rate of 90% or more (almost completely withered)) | effect on barnyard grass (H) (barnyard grass [14]): 4 (Herbicidal rate of 70% or more and less than 90%); effect on wild oat (I) (wild oat [15]): 0 (Herbicidal rate of 5% or less (almost no effect)); effect on blackgrass (J) (blackgrass [16]): 3 (Herbicidal rate of 40% or more and less than 70%); effect on Italian ryegrass (K) (Italian ryegrass [17]): 4 (Herbicidal rate of 70% or more and less than 90%); effect on windgrass (L) (windgrass [18]): 0 (Herbicidal rate of 5% or less (almost no effect)); effect on velvetleaf (M) (velvetleaf [19]): 4 (Herbicidal rate of 70% or more and less than 90%); effect on lambsquarters (O) (lambsquarters [20]): 3 (Herbicidal rate of 40% or more and less than 70%); effect on persian speedwell (R) (persian speedwell [21]): 4 (Herbicidal rate of 70% or more and less than 90%)
2 | CCCC(=O)Oc1c(C)nn(C)c(=O)c1-c1c(-c2ccc(C(C)(C)C)cc2)sc2ccc(F)cc12 [2-017] | 2 (Herbicidal rate of 20% or more and less than 40%) | 0 (Herbicidal rate of 5% or less (almost no effect)) | 0 (Herbicidal rate of 5% or less (almost no effect)) | 5 (Herbicidal rate of 90% or more (almost completely withered)) | 3 (Herbicidal rate of 40% or more and less than 70%) | 2 (Herbicidal rate of 20% or more and less than 40%) | 0 (Herbicidal rate of 5% or less (almost no effect)) | 1 (Herbicidal rate of 5% or more and less than 20%) | 2 (Herbicidal rate of 20% or more and less than 40%) | 0 (Herbicidal rate of 5% or less (almost no effect)) | 0 (Herbicidal rate of 5% or less (almost no effect)) | 0 (Herbicidal rate of 5% or less (almost no effect)) | 0 (Herbicidal rate of 5% or less (almost no effect)) | 0 (Herbicidal rate of 5% or less (almost no effect)) | 4 (Herbicidal rate of 70% or more and less than 90%) | 2 (Herbicidal rate of 20% or more and less than 40%) | 0 (Herbicidal rate of 5% or less (almost no effect)) | 0 (Herbicidal rate of 5% or less (almost no effect)) | 0 (Herbicidal rate of 5% or less (almost no effect)) | 1 (Herbicidal rate of 5% or more and less than 20%) | effect on barnyard grass (H) (barnyard grass [14]): 3 (Herbicidal rate of 40% or more and less than 70%); effect on wild oat (I) (wild oat [15]): 0 (Herbicidal rate of 5% or less (almost no effect)); effect on blackgrass (J) (blackgrass [16]): 0 (Herbicidal rate of 5% or less (almost no effect)); effect on Italian ryegrass (K) (Italian ryegrass [17]): 0 (Herbicidal rate of 5% or less (almost no effect)); effect on windgrass (L) (windgrass [18]): 0 (Herbicidal rate of 5% or less (almost no effect)); effect on velvetleaf (M) (velvetleaf [19]): 1 (Herbicidal rate of 5% or more and less than 20%); effect on lambsquarters (O) (lambsquarters [20]): 1 (Herbicidal rate of 5% or more and less than 20%); effect on persian speedwell (R) (persian speedwell [21]): 3 (Herbicidal rate of 40% or more and less than 70%)
